Experimental findings from PubChem BioAssay (NCI) are described below.

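Compound exposure: 48 hours, 5 concentrations, 96-well plates. Here, GI50 denotes the concentration required for 50% inhibition of growth. TGI denotes the concentration required for complete inhibition of growth.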

Some test systems named below: A549 NSCLC; CCRF-CEM leukemia; HOP-92 NSCLC; HT29 colon; MDA-MB-435; OVCAR-4 ovarian; SK-OV-3 ovarian; SR leukemia; SW-620 colon; UO-31 renal.
Assay in all cases: growth of human tumour cells (NCI), 48 h

Consider `CCOC(=O)c1c(NC(=O)c2ccc(C(C)C)cc2)sc2c(CN(C)C)c(O)ccc12`, for which the GI50 in the experiment with A549 NSCLC was 4.29 µM; in the experiment on CCRF-CEM leukemia it was 2.33 µM; with HOP-92 NSCLC, 1.44 µM; in the experiment with HT29 colon, 3.26 µM; in the experiment with MDA-MB-435, 1.77 µM; in the experiment on OVCAR-4 ovarian, 3.7 µM. The GI50 in the experiment with SK-OV-3 ovarian is 3 µM; in the experiment on SR leukemia, 2.09 µM; in the experiment with SW-620 colon, 1.7 µM; in the experiment on UO-31 renal it was 1.46 µM. The TGI in the experiment on A549 NSCLC was 20.7 µM; in the experiment on CCRF-CEM leukemia, 7.35 µM; with HOP-92 NSCLC, 3.1 µM; in the experiment on HT29 colon, 14.1 µM; in the experiment with MDA-MB-435, 3.37 µM; in the experiment on OVCAR-4 ovarian, 13.3 µM. Further, the TGI worked out at 9.22 µM in the experiment on SK-OV-3 ovarian, 6.44 µM in the experiment with SR leukemia, 3.41 µM in the experiment on SW-620 colon and 2.82 µM in the experiment with UO-31 renal.

Consider `C#C[C@]1(O)CC[C@H]2[C@@H]3CC=C4c5nc(Nc6ccccn6)sc5CC[C@]4(C)[C@H]3CC[C@@]21C`, for which the GI50 in the experiment on A549 NSCLC is 1.94 µM; with CCRF-CEM leukemia, 0.482 µM; in the experiment with HOP-92 NSCLC it was 1.8 µM; in the experiment on HT29 colon, 1.6 µM; in the experiment on MDA-MB-435, 1.55 µM; in the experiment with OVCAR-4 ovarian it was 2.94 µM. The GI50 in the experiment with SK-OV-3 ovarian was 1.32 µM; with SR leukemia, 0.542 µM; in the experiment on SW-620 colon it was 1.24 µM; in the experiment on UO-31 renal, 1.21 µM. The TGI in the experiment with A549 NSCLC was 11.1 µM; in the experiment with CCRF-CEM leukemia, 4.18 µM; with HOP-92 NSCLC, 4.43 µM; in the experiment with HT29 colon, 3.94 µM; in the experiment on MDA-MB-435, 4.45 µM; in the experiment with OVCAR-4 ovarian, 9.42 µM. Also, the TGI with SK-OV-3 ovarian was 5.29 µM; in the experiment with SR leukemia, 3.24 µM; in the experiment with SW-620 colon, 2.91 µM; with UO-31 renal, 2.64 µM.

Take `C[C@]12CC[C@@H]3c4ccc(O)c([N+](=O)[O-])c4CC[C@H]3[C@@H]1CC[C@@H]2NS(=O)(=O)c1ccc(C(F)(F)F)cc1`: the GI50 with A549 NSCLC was 1.98 µM; with CCRF-CEM leukemia, 2.34 µM; in the experiment on HOP-92 NSCLC, 1.12 µM; in the experiment with HT29 colon, 2.03 µM; in the experiment with MDA-MB-435, 1.74 µM; in the experiment on OVCAR-4 ovarian, 2.44 µM. In addition, the GI50 in the experiment with SK-OV-3 ovarian is 2.65 µM; in the experiment on SR leukemia, 1.65 µM; in the experiment with SW-620 colon, 2.04 µM; in the experiment on UO-31 renal, 1.5 µM. Besides, the TGI is 6.07 µM in the experiment on A549 NSCLC; 7.95 µM in the experiment on CCRF-CEM leukemia; 2.62 µM with HOP-92 NSCLC; 3.71 µM in the experiment with HT29 colon; 3.63 µM in the experiment on MDA-MB-435; 8.88 µM in the experiment on OVCAR-4 ovarian. For the same compound, the TGI in the experiment with SK-OV-3 ovarian stood at 7.36 µM; in the experiment on SR leukemia, 4.14 µM; in the experiment with SW-620 colon, 4.78 µM; with UO-31 renal it was 3.19 µM.

Turning to `Nc1cc2c3c(cccc3c1)NC2=O`, the TGI with A549 NSCLC, in the experiment on CCRF-CEM leukemia, with HOP-92 NSCLC, with HT29 colon, with MDA-MB-435 and with OVCAR-4 ovarian was above 100 µM in each case. Moreover, the TGI in the experiment on SK-OV-3 ovarian, with SR leukemia, in the experiment with SW-620 colon and with UO-31 renal was above 100 µM each time.

For the compound `CCc1nc(N)nc(N)c1-c1ccc([N+](=O)[O-])c(NCc2ccccc2)c1`, the TGI in the experiment with A549 NSCLC was 24.8 µM; with CCRF-CEM leukemia it was 32.5 µM; in the experiment with HOP-92 NSCLC, 25.9 µM; in the experiment on HT29 colon, 23.2 µM; in the experiment on MDA-MB-435, 38.3 µM; with OVCAR-4 ovarian, 58.1 µM. The TGI in the experiment with SK-OV-3 ovarian was above 55.1 µM; with SR leukemia it was 31.1 µM; in the experiment with SW-620 colon, 42.9 µM; in the experiment on UO-31 renal it was 22.2 µM.

As for `CS(=O)(=O)c1ccc(Cl)c([N+](=O)[O-])c1`, the GI50 with A549 NSCLC is 19.3 µM; in the experiment on CCRF-CEM leukemia, 19.2 µM; in the experiment with HOP-92 NSCLC, 18.3 µM; with HT29 colon it was 4.63 µM; with MDA-MB-435, 18.9 µM; in the experiment on OVCAR-4 ovarian, 2.02 µM. For the same compound, the GI50 was 18.4 µM with SK-OV-3 ovarian, 15.3 µM in the experiment on SR leukemia, 12.8 µM with SW-620 colon and 1.97 µM with UO-31 renal. For the same compound, the TGI with A549 NSCLC came to 41.1 µM; with CCRF-CEM leukemia it was 52.2 µM; with HOP-92 NSCLC it was 35 µM; with HT29 colon it was 17 µM; with MDA-MB-435, 38.4 µM; in the experiment with OVCAR-4 ovarian, 3.9 µM. The TGI with SK-OV-3 ovarian turned out to be 32.3 µM; in the experiment with SR leukemia, 46.6 µM; with SW-620 colon, 28.6 µM; with UO-31 renal it was 4.04 µM.

On to `COc1ccc2nc(-c3ccccc3)cc(Nc3cccc(/C(C)=N\O)c3)c2c1`, for which the GI50 was 4.67 µM in the experiment with A549 NSCLC; 58.7 µM in the experiment with CCRF-CEM leukemia; 1.93 µM in the experiment on HOP-92 NSCLC; 28.2 µM in the experiment with HT29 colon; 2.5 µM in the experiment with MDA-MB-435; 5.65 µM in the experiment on OVCAR-4 ovarian. The GI50 in the experiment on SK-OV-3 ovarian was 6.65 µM; in the experiment with SR leukemia, 3.36 µM; with SW-620 colon, 19.4 µM; with UO-31 renal, 9.66 µM. For the same compound, the TGI was above 100 µM with A549 NSCLC; above 100 µM in the experiment with CCRF-CEM leukemia; 5.66 µM in the experiment on HOP-92 NSCLC; above 100 µM with HT29 colon; 7.96 µM in the experiment with MDA-MB-435; above 100 µM in the experiment with OVCAR-4 ovarian. Further, the TGI in the experiment with SK-OV-3 ovarian is 80.6 µM; with SR leukemia, above 100 µM; with SW-620 colon, above 100 µM; with UO-31 renal it was above 100 µM.

For the compound `Fc1cccc(COc2ccc(Nc3ncnc4sc(-c5ccco5)cc34)cc2Cl)c1`, the GI50 in the experiment with A549 NSCLC, with CCRF-CEM leukemia, in the experiment on HOP-92 NSCLC, in the experiment with HT29 colon, with MDA-MB-435 and in the experiment with OVCAR-4 ovarian was above 25 µM in each case. Further, the GI50 in the experiment with SK-OV-3 ovarian, in the experiment with SR leukemia, in the experiment on SW-620 colon and in the experiment on UO-31 renal was above 25 µM each time. The TGI with A549 NSCLC, in the experiment with CCRF-CEM leukemia, in the experiment with HOP-92 NSCLC, in the experiment on HT29 colon, in the experiment on MDA-MB-435 and in the experiment on OVCAR-4 ovarian was above 25 µM in each case. Besides, the TGI with SK-OV-3 ovarian, in the experiment on SR leukemia, with SW-620 colon and with UO-31 renal was above 25 µM throughout.
